Laboratory results published in patent US20050130134A1, “Means and methods for monitoring non-nucleoside reverse transcriptase inhibitor antiretroviral therapy and guiding therapeutic decisions in the treatment HIV-AIDS” (ViroLogic, Inc., priority 2000, published 2005).
“Also recorded” adds a separate entry of the source.

Key:
[1] = tested on: RTV-644 patient virus (RT K101E, G190S); assay: Phenotypic susceptibility assay, RTV-644 (patient 97-644 / 98-644); format: cell-based, HIV-1; details: for decrease in susceptibility: RTV-644 patient virus; for change in susceptibility / resistance: RTV-644 patient virus compared to reference virus
Protocol: (§1) Resistance tests were carried out with resistance test vectors using two host cell types. Resistance test vector viral particles were produced by a first host cell (the resistance test vector host cell) that was prepared by transfecting a packaging host cell with the resistance test vector and the packaging expression vector. The resistance test vector viral particles were then used to infect a second host cell (the target host cell) in which the expression of the indicator gene is measured.
(§2) The resistance test vectors containing a functional luciferase gene cassette were constructed and host cells were transfected with the resistance test vector DNA. The resistant test vectors contained patient-derived reverse transcriptase and protease sequences that were either susceptible or resistant to the antiretroviral agents, such as nucleoside reverse transcriptase inhibitors, non-nucleoside reverse transcriptase inhibitors and protease inhibitors. The resistance test vector viral particles produced by transfecting the resistance test vector DNA into host cells, either in the presence or absence of protease inhibitors, were used to infect target host cells grown either in the absence of NRTI or NNRTI or in the presence of increasing concentrations of the drug. The amount of luciferase activity produced in infected target host cells in the presence of drug was compared to the amount of luciferase produced in infected target host cells in the absence of drug. Drug resistance was measured as the amount of drug required to inhibit by 50% the luciferase activity detected in the absence of drug (inhibitory concentration 50%, IC50). The IC50 values were determined by plotting percent drug inhibition vs. log10 drug concentration.
Host cells were seeded in 10-cm-diameter dishes and were transfected several days after plating with resistance test vector plasmid DNA and the envelope expression vector. Transfections were performed using a calcium-phosphate precipitation procedure. The cell culture media containing the DNA precipitate was replaced with fresh medium, from one to 24 hours, after transfection. […] HIV capsid protein (p24) levels in the harvested cell culture media were determined by an EIA method as described by the manufacturer (SIAC; Frederick, Md.). […] The inhibitory effect of the drug was determined using the following equation: % luciferase inhibition=1-(RLUluc[drug]÷RLUluc)×100 where RLUluc [drug] is the relative light unit of luciferase activity in infected cells in the presence of drug and RLUluc is the Relative Light Unit of luciferase activity in infected cells in the absence of drug. […]

[2] = tested on: HIV reverse transcriptase K103N + Y181C double mutant; details: K103N + Y181C double mutant compared to single mutants, FIG. 5
Protocol: as §1, §2
(§3) Host cells were seeded in 10-cm-diameter dishes and were transfected several days after plating with resistance test vector plasmid DNA and the envelope expression vector. Transfections were performed using a calcium-phosphate precipitation procedure. The cell culture media containing the DNA precipitate was replaced with fresh medium, from one to 24 hours, after transfection. Cell culture media containing resistance test vector viral particles was harvested one to four days after transfection and was passed through a […] filter before being stored at −80° C. HIV capsid protein (p24) levels in the harvested cell culture media were determined by an EIA method as described by the manufacturer (SIAC; Frederick, Md.). Before infection, target cells (293 and 293/T) were plated in cell culture media. Control infections were performed using cell culture media from mock transfections (no DNA) or transfections containing the resistance test vector plasmid DNA without the envelope expression plasmid. One to three or more days after infection the media was removed and cell lysis buffer (Promega) was added to each well. […] The inhibitory effect of the drug was determined using the following equation: % luciferase inhibition=1-(RLUluc[drug]÷RLUluc)×100 where RLUluc [drug] is the relative light unit of luciferase activity in infected cells in the presence of drug and RLUluc is the Relative Light Unit of luciferase activity in infected cells in the absence of drug. IC50 values were obtained from the sigmoidal curves that were generated from the data by plotting the percent inhibition of luciferase activity vs. the log10 drug concentration.

[3] = tested on: RTV-652 patient virus (RT V108I); details: >1 decrease, <1 increased susceptibility
Protocol: as §1, §2, §3

[4] = tested on: RTV-675 patient virus (RT A98G); details: >1 decreased susceptibility
Protocol: as §1, §2, §3

[5] = tested on: patient 487 virus (RT M184V, K103N); details: FIG. 4
Protocol: as §1, §2, §3

[6] = tested on: RTV-268 patient virus (RT P236L with M41L, D67N, M184V, L210W, T215Y, K219Q); assay: Phenotypic susceptibility assay, RTV-268 (patient 97-268); format: cell-based, HIV-1; details: RTV-268 patient virus compared to reference virus
Protocol: as §1, §2, §3
A resistance test vector was constructed as described in Example 1 from a patient sample designated 97-268. […] Isolation of viral RNA and RT/PCR was used to generate a patient derived segment that comprised viral sequences coding for all of PR and amino acids 1-313 of RT. The patient derived segment was inserted into a indicator gene viral vector to generate a resistance test vector designated RTV-268.

[7] = tested on: RTV-964 patient virus (RT Y181I); assay: Phenotypic susceptibility assay, RTV-964 (patient 98-964); format: cell-based, HIV-1
Protocol: Transfections were performed using a calcium-phosphate precipitation procedure. […] Cell lysates were assayed for luciferase activity (FIG. 3). […] The drug inhibition curves are shown in (FIG. 3).

[8] = tested on: HIV-1 reverse transcriptase Y188H (Y188H-RTV); details: >1 loss of susceptibility
Protocol: as §1
(§4) The resistance test vectors containing a functional luciferase gene cassette were constructed and host cells were transfected with the resistance test vector DNA. The resistant test vectors contained patient-derived reverse transcriptase and protease sequences that were either susceptible or resistant to the antiretroviral agents, such as nucleoside reverse transcriptase inhibitors, non-nucleoside reverse transcriptase inhibitors and protease inhibitors. […] The IC50 values were determined by plotting percent drug inhibition vs. log10 drug concentration.
(§5) Host cells were seeded in 10-cm-diameter dishes and were transfected several days after plating with resistance test vector plasmid DNA and the envelope expression vector. […] HIV capsid protein (p24) levels in the harvested cell culture media were determined by an EIA method as described by the manufacturer (SIAC; Frederick, Md.). […]

[9] = tested on: HIV-1 reverse transcriptase K103N + Y188L (K103N-Y188L-RTV); assay: Phenotypic susceptibility assay, site directed mutant K103N-Y188L-RTV; format: cell-based; details: >1 loss of susceptibility
Protocol: as §1, §4, §5

[10] = tested on: HIV-1 reverse transcriptase L100I + K103N (L100I-K103N-RTV); assay: Phenotypic susceptibility assay, site directed mutant L100I-K103N-RTV; format: cell-based; details: >1 loss of susceptibility
Protocol: as §1, §4, §5

[11] = tested on: HIV-1 reverse transcriptase L100I + K103N + Y188L (L100I-K103N-Y188L-RTV); assay: Phenotypic susceptibility assay, site directed mutant L100I-K103N-Y188L-RTV; format: cell-based; details: >1 loss of susceptibility
Protocol: as §1, §4, §5

[12] = tested on: Tyr181Cys (Y181C) mutation of HIV RT; details: cited from earlier work

SMILES	decrease in susceptibility [1] [fold]	change in susceptibility / resistance [1]	resistance profile [2]	fold change in susceptibility [3] [fold]	fold change in susceptibility [4] [fold]	resistance profile [5]	change in susceptibility / resistance [6]	decrease in susceptibility [7] [fold]	fold change in susceptibility compared to wild type control RTV [8] [fold]	fold change in susceptibility compared to wild type control RTV [9]	fold change in susceptibility compared to wild type control RTV [10] [fold]	fold change in susceptibility compared to wild type control RTV [11]	reduction in sensitivity [12] [fold]
CC(C)Nc1cccnc1N1CCN(C(=O)c2cc3cc(NS(C)(=O)=O)ccc3[nH]2)CC1 [delavirdine]	2.5	little or no resistance	further increase in resistance	0.97	2.1	increased resistance							
Cc1ccnc2c1NC(=O)c1cccnc1N2C1CC1 [nevirapine]	600	resistant; also recorded: large reduction in susceptibility	further increase in resistance	5	6	increased resistance	no change; also recorded: the same as wild type	750	3.5	greater than 800 fold	70	greater than 800 fold	100
